The text below walks through data of ChEMBL document CHEMBL4819035, “C-2-Linked Dimeric Strychnine Analogues as Bivalent Ligands Targeting Glycine Receptors” (J Nat Prod, 2021).

A value given as a limit tells only on which side of the number the result lay.

Common to all, as to format: cell-based
For test [1], the target named is T1, Glycine receptor subunit alpha-1 (Homo sapiens, UniProt P23415).
T1 sequence (P23415 whole entry): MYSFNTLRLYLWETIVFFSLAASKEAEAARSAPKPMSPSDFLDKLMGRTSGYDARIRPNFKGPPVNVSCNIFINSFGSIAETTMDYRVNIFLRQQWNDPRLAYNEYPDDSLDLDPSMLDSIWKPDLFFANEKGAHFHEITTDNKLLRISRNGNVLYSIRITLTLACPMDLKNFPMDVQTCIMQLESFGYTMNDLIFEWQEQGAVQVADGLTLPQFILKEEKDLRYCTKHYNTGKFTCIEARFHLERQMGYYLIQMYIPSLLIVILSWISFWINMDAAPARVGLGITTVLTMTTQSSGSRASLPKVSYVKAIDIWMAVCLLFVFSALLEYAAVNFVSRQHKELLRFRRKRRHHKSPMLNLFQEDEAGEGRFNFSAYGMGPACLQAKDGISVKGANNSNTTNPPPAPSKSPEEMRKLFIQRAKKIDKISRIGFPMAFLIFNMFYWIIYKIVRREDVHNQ
Put plainly: Antagonist activity at human glycine receptor subunit alpha-1 expressed in human tsA201 cells assessed as reduction in glycine-induced response incubated for 30 mins by fluorescence-based FLIPR membrane potential blue assay.

In test [2] the target is Glycine receptor (alpha-1/beta) (Homo sapiens, UniProt P23415+P48167). As to the kind of experiment: Antagonist activity at human glycine receptor subunit alpha-1beta expressed in human tsA201 cells assessed as reduction in glycine-induced response incubated for 30 mins by fluorescence-based FLIPR membrane potential blue assay. Particulars: for pIC50: tsa201.
Sequence of Glycine receptor (alpha-1/beta) (P48167 whole entry, one chain of several): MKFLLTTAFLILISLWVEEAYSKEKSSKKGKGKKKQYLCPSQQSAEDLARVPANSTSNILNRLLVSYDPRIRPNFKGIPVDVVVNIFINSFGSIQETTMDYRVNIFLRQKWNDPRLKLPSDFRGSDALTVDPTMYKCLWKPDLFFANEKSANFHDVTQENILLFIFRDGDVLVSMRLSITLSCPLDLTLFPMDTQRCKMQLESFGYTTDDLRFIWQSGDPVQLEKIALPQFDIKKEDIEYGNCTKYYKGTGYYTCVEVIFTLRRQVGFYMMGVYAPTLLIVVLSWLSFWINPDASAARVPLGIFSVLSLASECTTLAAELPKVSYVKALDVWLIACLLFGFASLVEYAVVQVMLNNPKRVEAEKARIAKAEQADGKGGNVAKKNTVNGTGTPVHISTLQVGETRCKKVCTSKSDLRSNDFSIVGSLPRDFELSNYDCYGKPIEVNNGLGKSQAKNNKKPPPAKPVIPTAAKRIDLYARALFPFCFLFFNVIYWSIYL
The target of test [3] is T1, Glycine receptor subunit alpha-1. As to the kind of experiment: Antagonist activity at human glycine receptor subunit alpha-1 expressed in HEK293 cells assessed as reduction in glycine-induced currents by whole-cell patch-clamp assay.

On to `O=C(CCCCCCCC(=O)NCC(=O)Nc1ccc2c(c1)[C@@]13CCN4CC5=CCO[C@H]6CC(=O)N2[C@H]1[C@H]6[C@H]5C[C@H]43)NCC(=O)Nc1ccc2c(c1)[C@@]13CCN4CC5=CCO[C@H]6CC(=O)N2[C@H]1[C@H]6[C@H]5C[C@H]43`, for which the IC50 in test [1] (read-out: IC50) was determined as 2100 nM; in test [2] (read-out: IC50), 1700 nM; in test [3], 400 nM.
On to `CCCCCCCC(=O)NCC(=O)Nc1ccc2c(c1)[C@@]13CCN4CC5=CCO[C@H]6CC(=O)N2[C@H]1[C@H]6[C@H]5C[C@H]43`, for which the values for the IC50 in test [1] (read-out: IC50), in test [2] (read-out: IC50) and in test [3] were 780 nM, 510 nM and 90 nM, respectively.
On to `CCCCCCCC(=O)NCCCCCCCCCCC(=O)Nc1ccc2c(c1)[C@@]13CCN4CC5=CCO[C@H]6CC(=O)N2[C@H]1[C@H]6[C@H]5C[C@H]43`, for which the IC50 is 10000 nM in test [1] (read-out: IC50), 5800 nM in test [2] (read-out: IC50) and 1700 nM in test [3].
For `O=C(CCCCCCC(=O)NCC(=O)Nc1ccc2c(c1)[C@@]13CCN4CC5=CCO[C@H]6CC(=O)N2[C@H]1[C@H]6[C@H]5C[C@H]43)NCC(=O)Nc1ccc2c(c1)[C@@]13CCN4CC5=CCO[C@H]6CC(=O)N2[C@H]1[C@H]6[C@H]5C[C@H]43` the same measures were 2800 nM, 2400 nM and 170 nM.
In the case of `O=C(CCCCCCCCCCCCCCC(=O)NCCCCC(=O)Nc1ccc2c(c1)[C@@]13CCN4CC5=CCO[C@H]6CC(=O)N2[C@H]1[C@H]6[C@H]5C[C@H]43)NCCCCC(=O)Nc1ccc2c(c1)[C@@]13CCN4CC5=CCO[C@H]6CC(=O)N2[C@H]1[C@H]6[C@H]5C[C@H]43`, the IC50 in test [1] (read-out: IC50) worked out at 7900 nM; in test [2] (read-out: IC50), 4100 nM.
For `O=C(CCCCCC(=O)NCC(=O)Nc1ccc2c(c1)[C@@]13CCN4CC5=CCO[C@H]6CC(=O)N2[C@H]1[C@H]6[C@H]5C[C@H]43)NCC(=O)Nc1ccc2c(c1)[C@@]13CCN4CC5=CCO[C@H]6CC(=O)N2[C@H]1[C@H]6[C@H]5C[C@H]43`, the IC50 is 2800 nM in test [1] (read-out: IC50), 2690 nM in test [1] (read-out: pIC50 (converted)), 2200 nM in test [2] (read-out: IC50) and 130 nM in test [3].
In the case of `O=C(CCCCCCCCCCCCCCCCCCCCC(=O)NCCCCCCCCCCC(=O)Nc1ccc2c(c1)[C@@]13CCN4CC5=CCO[C@H]6CC(=O)N2[C@H]1[C@H]6[C@H]5C[C@H]43)NCCCCCCCCCCC(=O)Nc1ccc2c(c1)[C@@]13CCN4CC5=CCO[C@H]6CC(=O)N2[C@H]1[C@H]6[C@H]5C[C@H]43`, the figures for the IC50 in test [1] (read-out: IC50), in test [2] (read-out: IC50) and in test [3] were more than 10000 nM, more than 10000 nM and 2900 nM, respectively. Also, the pIC50 in test [1] (tsa201) and in test [2] was less than 5 throughout.
Turning to `O=C(CCCCCCCCCCCCCCC(=O)NCCCCCCCCCCC(=O)Nc1ccc2c(c1)[C@@]13CCN4CC5=CCO[C@H]6CC(=O)N2[C@H]1[C@H]6[C@H]5C[C@H]43)NCCCCCCCCCCC(=O)Nc1ccc2c(c1)[C@@]13CCN4CC5=CCO[C@H]6CC(=O)N2[C@H]1[C@H]6[C@H]5C[C@H]43`, the figures for the IC50 in test [1] (read-out: IC50) and in test [2] (read-out: IC50) were 10000 nM and more than 10000 nM, respectively. For the same molecule, in test [2], the pIC50 is reported as less than 5.
Consider `O=C(CCCCCCCCCCCCC(=O)NCC(=O)Nc1ccc2c(c1)[C@@]13CCN4CC5=CCO[C@H]6CC(=O)N2[C@H]1[C@H]6[C@H]5C[C@H]43)NCC(=O)Nc1ccc2c(c1)[C@@]13CCN4CC5=CCO[C@H]6CC(=O)N2[C@H]1[C@H]6[C@H]5C[C@H]43`, for which the IC50 in test [1] (read-out: IC50) amounted to 1700 nM; in test [2] (read-out: IC50) it was 2000 nM.
As to `O=C(CCC(=O)Nc1ccc2c(c1)[C@@]13CCN4CC5=CCO[C@H]6CC(=O)N2[C@H]1[C@H]6[C@H]5C[C@H]43)Nc1ccc2c(c1)[C@@]13CCN4CC5=CCO[C@H]6CC(=O)N2[C@H]1[C@H]6[C@H]5C[C@H]43`, the IC50 in test [1] (read-out: IC50) and in test [2] (read-out: IC50) was 10000 nM throughout.
Consider `O=C(CCCCCCCCCCCCC(=O)Nc1ccc2c(c1)[C@@]13CCN4CC5=CCO[C@H]6CC(=O)N2[C@H]1[C@H]6[C@H]5C[C@H]43)Nc1ccc2c(c1)[C@@]13CCN4CC5=CCO[C@H]6CC(=O)N2[C@H]1[C@H]6[C@H]5C[C@H]43`, for which the IC50 in test [1] (read-out: IC50) came out at 430 nM; in test [2] (read-out: IC50), 210 nM.
For `O=C(CCCCCCCCCCCCCCC(=O)NCC(=O)Nc1ccc2c(c1)[C@@]13CCN4CC5=CCO[C@H]6CC(=O)N2[C@H]1[C@H]6[C@H]5C[C@H]43)NCC(=O)Nc1ccc2c(c1)[C@@]13CCN4CC5=CCO[C@H]6CC(=O)N2[C@H]1[C@H]6[C@H]5C[C@H]43` the same measures were 3200 nM and 2200 nM.
With `O=C(CCCCCCCCCCC(=O)NCC(=O)Nc1ccc2c(c1)[C@@]13CCN4CC5=CCO[C@H]6CC(=O)N2[C@H]1[C@H]6[C@H]5C[C@H]43)NCC(=O)Nc1ccc2c(c1)[C@@]13CCN4CC5=CCO[C@H]6CC(=O)N2[C@H]1[C@H]6[C@H]5C[C@H]43`, the values for the IC50 in test [1] (read-out: IC50), in test [2] (read-out: IC50) and in test [3] were 2700 nM, 1900 nM and 100 nM, respectively.
Consider `CCCCCCCC(=O)Nc1ccc2c(c1)[C@@]13CCN4CC5=CCO[C@H]6CC(=O)N2[C@H]1[C@H]6[C@H]5C[C@H]43`, for which the IC50 in test [1] (read-out: IC50) was 1200 nM; in test [2] (read-out: IC50), 680 nM.
With `O=C(CCCCCCCCC(=O)NCC(=O)Nc1ccc2c(c1)[C@@]13CCN4CC5=CCO[C@H]6CC(=O)N2[C@H]1[C@H]6[C@H]5C[C@H]43)NCC(=O)Nc1ccc2c(c1)[C@@]13CCN4CC5=CCO[C@H]6CC(=O)N2[C@H]1[C@H]6[C@H]5C[C@H]43`, the IC50 was 730 nM in test [1] (read-out: IC50) and 880 nM in test [2] (read-out: IC50).
On to `O=C(CCCCC(=O)Nc1ccc2c(c1)[C@@]13CCN4CC5=CCO[C@H]6CC(=O)N2[C@H]1[C@H]6[C@H]5C[C@H]43)Nc1ccc2c(c1)[C@@]13CCN4CC5=CCO[C@H]6CC(=O)N2[C@H]1[C@H]6[C@H]5C[C@H]43`, for which the values for the IC50 in test [1] (read-out: IC50) and in test [2] (read-out: IC50) were 6100 nM and 10000 nM, respectively.
For `O=C(CCCC(=O)Nc1ccc2c(c1)[C@@]13CCN4CC5=CCO[C@H]6CC(=O)N2[C@H]1[C@H]6[C@H]5C[C@H]43)Nc1ccc2c(c1)[C@@]13CCN4CC5=CCO[C@H]6CC(=O)N2[C@H]1[C@H]6[C@H]5C[C@H]43` the same measures were 10000 nM and 30000 nM.
For the molecule `O=C(CCCCCCC(=O)NCCCCCCCCCCC(=O)Nc1ccc2c(c1)[C@@]13CCN4CC5=CCO[C@H]6CC(=O)N2[C@H]1[C@H]6[C@H]5C[C@H]43)NCCCCCCCCCCC(=O)Nc1ccc2c(c1)[C@@]13CCN4CC5=CCO[C@H]6CC(=O)N2[C@H]1[C@H]6[C@H]5C[C@H]43`, the IC50 in test [1] (read-out: IC50) is 30000 nM; in test [2] (read-out: IC50), 20000 nM; in test [2] (read-out: pIC50 (converted)), 50100 nM; in test [3], 1400 nM.
For `O=C(CCCCCCCCCCC(=O)NCCCCCCCCCCC(=O)Nc1ccc2c(c1)[C@@]13CCN4CC5=CCO[C@H]6CC(=O)N2[C@H]1[C@H]6[C@H]5C[C@H]43)NCCCCCCCCCCC(=O)Nc1ccc2c(c1)[C@@]13CCN4CC5=CCO[C@H]6CC(=O)N2[C@H]1[C@H]6[C@H]5C[C@H]43` the same measures were 30000 nM, 50000 nM, 31600 nM and 3100 nM.
